In patent US8546438B2, “Substituted (thiophenyl-carbonyl)imidazolidinones, and use thereof” (priority 2008, dated 2013):

Experiments:
HIV-1LAI = assay: H9 assay with wild-type HIV-1LAI (AlamarBlue, supernatant infection); format: cell-based; conditions: Human immunodeficiency virus 1, H9 cells, 10% FCS
Experimental: For the mixture for a 96-well MTP, 3 million PBLs are pelleted, suspended in 1 ml of RPMI 1640 medium/10% FCS and incubated together with a suitable amount of HIV-1LAI (NIH AIDS Research & Reference Reagent Program, Germantown, USA) at 37° C. for 2 hours (pellet infection). Unadsorbed viruses are subsequently washed out with PBS, and the infected cells are pelleted again and suspended in 18 ml of RPMI 1640 medium/10% FCS/interleukin-2 (40 U/ml). 180 μl thereof are pipetted into each well of a white 96-well MTP with 20 μl of test substance in suitable dilution. Alternatively, after preparation of the substance dilutions in the MTP, the HIV is pipetted in together with the cells and is not washed out again (supernatant infection). In order to avoid edge effects, the wells at the edge of the MTP are not used for substance dilutions. The second vertical row of the MTP contains only infected cells (virus control) and the eleventh vertical row only uninfected cells (cell control), in each case in RPMI 1640 medium/10% FCS/interleukin-2 (40 U/ml). The other wells of the MTP contain the compounds of the invention in various concentrations starting from the third vertical row, from which the test substances are diluted in 3-fold steps up to the tenth vertical row 3^7-fold. The test substances are dissolved in DMSO, whereby the final DMSO concentration in the test mixture is 1%. The test mixtures are incubated at 37° C./5% CO2. After 5 and 7 days, 50 μl of cell-free supernatant are removed from each well to determine the amount of p24 present by means of a p24 ELISA (HIV-1 p24^CA Antigen Capture Assay Kit, NCI-Frederick Cancer Research and Development Center, Frederick, USA). From the resulting values of the photometric evaluation (450/620 nm) the EC50 values of the test substances are determined as the concentration at which the amount of p24 is 50% of the untreated infected cells.
Alternatively, H9 cells (ATCC, Wesel, Germany) are employed instead of PBLs for testing the test substances. H9 cells are incubated in RPMI 1640 medium with 2% or 10% FCS as a HIV-1LAI supernatant infection at 37° C./5% CO2, (20 μl of substance dilution and 80 μl of cells/virus per well) in accordance with the pattern described above for 5 days. Subsequently, 10 μl of AlamarBlue (Invitrogen, Karlsruhe, Germany) are added to each well, and the MTPs are incubated at 37° C. for 3 hours before the fluorimetric evaluation takes place (544/590 nm). The resulting values are about 40 000 for the untreated uninfected cells and about 7000 for the untreated infected cells. In the low concentration range, the EC50 values of the test substances are determined as the concentration at which the fluorescence is 50% of the untreated uninfected cells (in each case subtracting the values of the untreated infected cells). In addition, in the high concentration range, the CC50 values of the test substances are determined as the concentration at which the fluorescence is 50% of the untreated uninfected cells (in each case subtracting the values of the untreated infected cells).

HIV-1NL4-3 wt = assay: Light assay with wild-type HI reporter virus in MT4 7F2 cells; format: cell-based; conditions: Human immunodeficiency virus 1, read-out: EC50(nM) MT4 7F2 cells HIV-1NL4-3 wt 2% FCS
Experimental: (§1) For the mixture for a 96-well MTP, 3 million MT4 7F2 cells are pelleted, suspended in 1 ml of RPMI 1640 medium without phenol red (Invitrogen, Karlsruhe, Germany)/10% FCS/10% AIM-V (Invitrogen, Karlsruhe, Germany) and incubated together with a suitable amount of the corresponding HIV-1NL4-3 reporter virus at 37° C. for 2 hours (pellet infection). Unadsorbed viruses are subsequently washed out with PBS, and the infected cells are pelleted again and suspended in 8 ml of RPMI 1640 medium without phenol red/2% or 10% FCS/10% AIM-V. 80 μl thereof are pipetted into each well of a white 96-well MTP with 20 μl of test substance in suitable dilution. To avoid edge effects, the wells on the edge of the MTP are not used for substance dilutions. The second vertical row of the MTP contains only infected cells (virus control) and the eleventh vertical row only uninfected cells (cell control), in each case in RPMI 1640 medium without phenol red/2% or 10% FCS/10% AIM-V. The other wells of the MTP contain the compounds of the invention in various concentrations starting from the third vertical row, from which the test substances are diluted in 3-fold steps up to the tenth vertical row 3^7-fold. The test substances are dissolved in DMSO, whereby the final DMSO concentration in the test mixture is 1%. The test mixtures are incubated at 37° C./5% CO2 for five days and, after the addition of 15 μl of Lu164 substrate (5 mg/ml coelenterazine dissolved in 30 μM glutathione/DMSO, 100 mM NaCl, 1M MES, 100 mM glutathione), evaluated by luminometry. The resulting values are in the region of 1 000 000 RLUs (relative light units) for the virus control and 300 to 400 RLUs for the cell control. The EC50 values of the test substances are determined as the concentration at which the virus replication measured in RLUs is 50% of the untreated infected cells.

HIV-1NL4-3 K103N-Y181C = assay: Light assay with inhibitor-resistant HI reporter virus in MT4 7F2 cells; format: cell-based; conditions: Human immunodeficiency virus 1, read-out: EC50(nM) MT4 7F2 cells HIV-1NL4-3 K103N-Y181C 2% FCS
Experimental: as §1

reverse transcriptase = target: T1, reverse transcriptase (Human immunodeficiency virus type 1 group M subtype B, UniProt P04585); assay: Biochemical reverse transcriptase assay (Reverse Transcriptase Assay, colorimetric, Roche); conditions: read-out: IC50(nM) RT assay
T1 construct: negative control (mixture without reverse transcriptase); purchased Roche Diagnostics GmbH, Mannheim, Germany
Experimental: The “Reverse Transcriptase Assay, colorimetric” (Roche Diagnostics GmbH, Mannheim, Germany) is used in accordance with the manufacturer's information. The test substances are dissolved in DMSO and are used in the test diluted in 5-fold steps (final DMSO concentration 1%). The resulting values of the photometric evaluation (405/492 nm) are less than 0.1 for the negative control (mixture without reverse transcriptase) and are in the region of 1.5 for the positive control (mixture without test substance). The IC50 values of the test substances are determined as the concentration of the test substance dilution at which the measured optical density is 50% of the positive control.

| Compound | EC50 (HIV-1LAI) | EC50 (HIV-1NL4-3 wt) | EC50 (HIV-1NL4-3 K103N-Y181C) | IC50 (reverse transcriptase) |
| --- | --- | --- | --- | --- |
| N#Cc1cccc(-c2cc(C(=O)N3CNC(=O)C3)sc2-c2cc(F)cc(Cl)c2)c1 [Example 1, 3-{2-(3-Chloro-5-fluorophenyl)-5-[(4-oxoimidazolidin-1-yl)carbonyl]thiophen-3-yl}benzenecarbonitrile] | 9 nM | 1 nM | 45 nM |  |
| O=C1CN(C(=O)c2cc(-c3ccc(F)c(Cl)c3)c(-c3cc(F)cc(Cl)c3)s2)CN1 [Example 2, 1-{[4-(3-Chloro-4-fluorophenyl)-5-(3-chloro-5-fluorophenyl)thiophen-2-yl]carbonyl}imidazolidin-4-one] | 68 nM | 20 nM | 176 nM | 920 nM |
| N#Cc1cccc(-c2cc(C(=O)N3CNC(=O)C3)sc2-c2cccc(Cl)c2)c1 [Example 3, 3-{2-(3-Chlorophenyl)-5-[(4-oxoimidazolidin-1-yl)carbonyl]thiophen-3-yl}benzenecarbonitrile] | 71 nM | 5 nM | 100 nM | 740 nM |
| N#Cc1cc(-c2cc(C(=O)N3CNC(=O)C3)sc2-c2cc(F)cc(Cl)c2)ccc1F [Example 4, 5-{2-(3-Chloro-5-fluorophenyl)-5-[(4-oxoimidazolidin-1-yl)carbonyl]thiophen-3-yl}-2-fluorobenzenecarbonitrile] | 12 nM | < 1.5 nM | 44 nM |  |
| O=C1CN(C(=O)c2cc(-c3cccc(Cl)c3)c(-c3cc(F)cc(Cl)c3)s2)CN1 [Example 5, 1-{[5-(3-Chloro-5-fluorophenyl)-4-(3-chlorophenyl)thiophen-2-yl]carbonyl}imidazolidin-4-one] | 85 nM | 21 nM | 258 nM | 2170 nM |
| N#Cc1cc(-c2sc(C(=O)N3CNC(=O)C3)cc2-c2cccc(Cl)c2)ccc1F [Example 6, 5-{3-(3-Chlorophenyl)-5-[(4-oxoimidazolidin-1-yl)carbonyl]thiophen-2-yl}-2-fluorobenzenecarbonitrile] | 900 nM | 165 nM | 348 nM |  |
| O=C1CN(C(=O)c2cc(-c3cccc(Cl)c3)c(-c3cccc(OC(F)(F)F)c3)s2)CN1 [Example 7, 1-({4-(3-Chlorophenyl)-5-[3-(trifluoromethoxy)phenyl]thiophen-2-yl}carbonyl)imidazolidin-4-one] | 1410 nM | 100 nM | 150 nM |  |
| N#Cc1cc(-c2cc(C(=O)N3CNC(=O)C3)sc2-c2cccc(Cl)c2)ccc1F [Example 8, 5-{2-(3-Chlorophenyl)-5-[(4-oxoimidazolidin-1-yl)carbonyl]thiophen-3-yl}-2-fluorobenzenecarbonitrile] | 103 nM | 5 nM | 121 nM |  |
| O=C1CN(C(=O)c2cc(-c3ccc(F)c(Cl)c3)c(-c3cccc(Cl)c3)s2)CN1 [Example 9, 1-{[4-(3-Chloro-4-fluorophenyl)-5-(3-chlorophenyl)thiophen-2-yl]carbonyl}imidazolidin-4-one] | 593 nM | 35 nM | 260 nM |  |
| N#Cc1cc(F)cc(-c2sc(C(=O)N3CNC(=O)C3)cc2-c2ccc(F)c(Cl)c2)c1 [Example 10, 3-{3-(3-Chloro-4-fluorophenyl)-5-[(4-oxoimidazolidin-1-yl)carbonyl]thiophen-2-yl}-5-fluorobenzenecarbonitrile] | 34 nM | 5 nM | 40 nM |  |
| N#Cc1cc(F)cc(-c2sc(C(=O)N3CNC(=O)C3)cc2-c2cccc(Cl)c2)c1 [Example 11, 3-{3-(3-Chlorophenyl)-5-[(4-oxoimidazolidin-1-yl)carbonyl]thiophen-2-yl}-5-fluorobenzenecarbonitrile] | 22 nM | 2 nM | 123 nM |  |
